Read-outs that look alike come from different tables or passages of the source.
Target: T1, F508delCFTR (Homo sapiens, UniProt P13569, DEL508-508)
T1 construct: expressed in transfected cells; host or cells: CFBE41o- (human lung derived epithelial cell line), doxycycline-inducible expression
Experiment: Cell Surface Expression-Horse Radish Peroxidase (CSE-HRP) assay
Format: cell-based
Conditions: CFBE41o-F508delCFTR-HRP cells; for Maximum % activity (with co-corrector): with co-corrector (2 μM); for Maximum % activity (with co-corrector) / Maximum % activity (without co-corrector): normalized to on-plate positive control, highest concentration 20 μM
In short: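 Surface F508delCFTR-HRP was read by luminol luminescence after 18–24 h compound exposure at 33 °C, without or with 2 μM co-corrector. Doses were eight 3-fold steps from 20 μM, in doxycycline-induced (0.5 μg/mL, 72 h) CFBE41o- cells. % activity was scaled to the on-plate 2 μM positive control minus DMSO; EC50 came from a variable-slope sigmoid fit.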

[1] = test compound without co-corrector, 18-24 hours at 33° C., read-out: EC50 (without co-corrector)
[2] = with co-corrector (2 μM of 3-[(2R,4R)-4-({[1-(2,2-difluoro-1,3-benzodioxol-5-yl)cyclopropyl]carbonyl}amino)-7-methoxy-3,4-dihydro-2H-chromen-2-yl]benzoic acid), read-out: EC50 (with co-corrector)

T1 sequence (P13569 with tags, fused parts or gaps DEL508-508): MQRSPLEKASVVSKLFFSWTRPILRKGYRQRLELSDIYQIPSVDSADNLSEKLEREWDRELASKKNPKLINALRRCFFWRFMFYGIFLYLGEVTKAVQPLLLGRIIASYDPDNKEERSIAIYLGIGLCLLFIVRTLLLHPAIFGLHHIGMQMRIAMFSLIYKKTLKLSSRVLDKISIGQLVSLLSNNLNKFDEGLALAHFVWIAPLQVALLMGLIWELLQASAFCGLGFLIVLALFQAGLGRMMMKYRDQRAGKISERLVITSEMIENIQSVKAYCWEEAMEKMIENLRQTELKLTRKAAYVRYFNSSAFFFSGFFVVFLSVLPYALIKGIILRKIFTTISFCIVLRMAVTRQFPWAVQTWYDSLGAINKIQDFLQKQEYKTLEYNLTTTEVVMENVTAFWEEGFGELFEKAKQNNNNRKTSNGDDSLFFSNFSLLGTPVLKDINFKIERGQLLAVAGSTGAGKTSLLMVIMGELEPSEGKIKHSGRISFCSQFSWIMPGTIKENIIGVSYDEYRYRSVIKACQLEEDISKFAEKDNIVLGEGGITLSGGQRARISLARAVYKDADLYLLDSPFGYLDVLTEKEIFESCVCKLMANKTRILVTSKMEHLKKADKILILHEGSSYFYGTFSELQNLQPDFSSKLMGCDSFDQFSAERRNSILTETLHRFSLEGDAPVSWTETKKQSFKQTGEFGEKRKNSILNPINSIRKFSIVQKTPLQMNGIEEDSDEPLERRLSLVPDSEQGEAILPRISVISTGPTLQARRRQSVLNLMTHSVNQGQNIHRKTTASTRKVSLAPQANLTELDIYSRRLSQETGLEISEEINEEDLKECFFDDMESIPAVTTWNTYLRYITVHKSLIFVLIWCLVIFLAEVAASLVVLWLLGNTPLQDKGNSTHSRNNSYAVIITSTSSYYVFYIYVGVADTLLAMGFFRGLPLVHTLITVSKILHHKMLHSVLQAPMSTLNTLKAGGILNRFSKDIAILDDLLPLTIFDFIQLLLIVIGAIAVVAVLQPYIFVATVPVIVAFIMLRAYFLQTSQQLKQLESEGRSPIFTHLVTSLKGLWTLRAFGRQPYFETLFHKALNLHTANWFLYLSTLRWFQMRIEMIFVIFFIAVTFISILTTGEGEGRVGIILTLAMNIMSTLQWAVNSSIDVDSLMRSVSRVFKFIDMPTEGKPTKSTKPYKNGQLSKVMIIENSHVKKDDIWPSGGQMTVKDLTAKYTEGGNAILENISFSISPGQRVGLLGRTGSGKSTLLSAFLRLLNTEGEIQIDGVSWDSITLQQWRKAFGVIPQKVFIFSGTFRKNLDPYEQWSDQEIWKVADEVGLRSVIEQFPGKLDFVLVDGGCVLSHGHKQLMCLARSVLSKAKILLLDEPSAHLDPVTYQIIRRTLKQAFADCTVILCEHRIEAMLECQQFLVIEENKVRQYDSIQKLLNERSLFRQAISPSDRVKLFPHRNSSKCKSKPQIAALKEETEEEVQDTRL

| EC50 [1] [µM] | EC50 [2] [µM] | Maximum % activity (with co-corrector) | Maximum % activity (without co-corrector) | SMILES |
| --- | --- | --- | --- | --- |
| 1 to 10 | 1 to 10 | +++ (≥350) | ++ (≥100 and <200) | COc1ncc(C2CC3CCC2C3)cc1CO[C@H]1[C@H](C(C)(C)C)[C@@H](C(=O)O)N(C(=O)C2CCCCC2)[C@H]1c1ccccc1 (stereo partly drawn) [Example 55, (2S,3R,4S,5S)-4-{[5-(bicyclo[2.2.1]heptan-2-yl)-2-methoxypyridin-3-yl]methoxy}-3-tert-butyl-1-(cyclohexanecarbonyl)-5-phenylpyrrolidine-2-carboxylic acid] |
| 1 to 10 | 1 to 10 | ++ (≥150 and <350) | + (<100) | COc1ncc(C2CCC2)cc1CO[C@H]1[C@H](C(C)(C)C)[C@@H](C(=O)NS(=O)(=O)c2cccc(N)n2)N(C(=O)[C@@H]2CCCCO2)[C@H]1c1ccccc1C1CC1 [Example 225, (2S,3R,4S,5S)—N-(6-aminopyridine-2-sulfonyl)-3-tert-butyl-4-[(5-cyclobutyl-2-methoxypyridin-3-yl)methoxy]-5-(2-cyclopropylphenyl)-1-[(2S)-oxane-2-carbonyl]pyrrolidine-2-carboxamide] |
| < 1 | < 1 | +++ (≥350) | ++ (≥100 and <200) | COc1ncc(C2CCC2)cc1CO[C@H]1[C@H](C(C)(C)C)[C@@H](C(=O)O)N(C(=O)[C@@H]2CCCO2)[C@H]1c1ccccc1Br [Example 144, (2S,3R,4S,5S)-5-(2-bromophenyl)-3-tert-butyl-4-[(5-cyclobutyl-2-methoxypyridin-3-yl)methoxy]-1-[(2S)-oxolane-2-carbonyl]pyrrolidine-2-carboxylic acid] |
| > 10 | 1 to 10 | ++ (≥150 and <350) | + (<100) | CCS(=O)(=O)NC(=O)[C@@H]1[C@@H](C(C)(C)C)[C@H](OCc2cc(C(F)(F)F)ccc2OC)[C@H](c2ccccc2)N1C(=O)C1CCCCC1 [Example 24, (2S,3R,4S,5S)-3-tert-butyl-1-(cyclohexanecarbonyl)-N-(ethanesulfonyl)-4-{[2-methoxy-5-(trifluoromethyl)phenyl]methoxy}-5-phenylpyrrolidine-2-carboxamide] |
| 1 to 10 | < 1 | ++ (≥150 and <350) | + (<100) | COc1ncc(C(F)(F)F)cc1CO[C@H]1[C@H](C(C)(C)C)[C@@H](C(=O)O)N(C(=O)[C@@H]2CCCO2)[C@H]1c1cccc(C2CC2)c1 [Example 120, (2S,3R,4S,5S)-3-tert-butyl-5-(3-cyclopropylphenyl)-4-{[2-methoxy-5-(trifluoromethyl)pyridin-3-yl]methoxy}-1-[(2S)-oxolane-2-carbonyl]pyrrolidine-2-carboxylic acid] |
| 1 to 10 | < 1 | +++ (≥350) | ++ (≥100 and <200) | COc1ccccc1[C@H]1[C@@H](OCc2cc(C(F)(F)F)cnc2OC)[C@H](C(C)(C)C)[C@@H](C(=O)O)N1C(=O)[C@@H]1CCCCO1 [Example 240, (2S,3R,4S,5S)-3-tert-butyl-5-(2-methoxyphenyl)-4-{[2-methoxy-5-(trifluoromethyl)pyridin-3-yl]methoxy}-1-[(2S)-oxane-2-carbonyl]pyrrolidine-2-carboxylic acid] |
| 1 to 10 | < 1 | +++ (≥350) | ++ (≥100 and <200) | COc1nc2ccccc2cc1CO[C@H]1[C@H](C(C)(C)C)[C@@H](C(=O)O)N(C(=O)[C@@H]2CCCO2)[C@H]1c1ccccc1C1CC1 [Example 139, (2S,3R,4S,5S)-3-tert-butyl-5-(2-cyclopropylphenyl)-4-[(2-methoxyquinolin-3-yl)methoxy]-1-[(2S)-oxolane-2-carbonyl]pyrrolidine-2-carboxylic acid] |
| 1 to 10 | 1 to 10 | +++ (≥350) | + (<100) | COc1ccc(C(F)(F)F)cc1COC1[C@@H](c2ccccc2OC)N(C(=O)C2CCCCC2)[C@@H](C(=O)O)[C@@H]1C(C)(C)C (mixture of isomers) [Example 13, rac-(2R,3S,5R)-3-tert-butyl-1-(cyclohexanecarbonyl)-5-(2-methoxyphenyl)-4-{[2-methoxy-5-(trifluoromethyl)phenyl]methoxy}pyrrolidine-2-carboxylic acid] |
| 1 to 10 | < 1 | +++ (≥350) | ++ (≥100 and <200) | COc1ncc(C2CCC2)cc1CO[C@H]1[C@H](C(C)(C)C)[C@@H](C(=O)O)N(C(=O)O[C@@H](C)C(F)(F)F)[C@H]1c1cccnc1OC(C)C [Example 267, (2S,3R,4S,5S)-3-tert-butyl-4-[(5-cyclobutyl-2-methoxypyridin-3-yl)methoxy]-5-{2-[(propan-2-yl)oxy]pyridin-3-yl}-1-({[(2S)-1,1,1-trifluoropropan-2-yl]oxy}carbonyl)pyrrolidine-2-carboxylic acid] |
| 1 to 10 | 1 to 10 | +++ (≥350) | +++ (≥200) | COc1ncc(C2CCC2)cc1CO[C@H]1[C@H](C(C)(C)C)[C@@H](C(=O)O)N(C(=O)C2CCCCC2)[C@H]1c1cccnc1OC(C)C [Example 169, (2S,3R,4S,5S)-3-tert-butyl-4-[(5-cyclobutyl-2-methoxypyridin-3-yl)methoxy]-1-(cyclohexanecarbonyl)-5-{2-[(propan-2-yl)oxy]pyridin-3-yl}pyrrolidine-2-carboxylic acid] |
| < 1 | < 1 | ++ (≥150 and <350) | + (<100) | COc1ncc(C(F)(F)F)cc1CO[C@H]1[C@H](C(C)(C)C)[C@@H](C(=O)O)N(C(=O)[C@@H]2CCCO2)[C@H]1c1cccc(C2CCC2)c1 [Example 140, (2S,3R,4S,5S)-3-tert-butyl-5-(3-cyclobutylphenyl)-4-{[2-methoxy-5-(trifluoromethyl)pyridin-3-yl]methoxy}-1-[(2S)-oxolane-2-carbonyl]pyrrolidine-2-carboxylic acid] |
| 1 to 10 | 1 to 10 | +++ (≥350) | ++ (≥100 and <200) | COc1ncc(C(F)(F)F)cc1CO[C@H]1[C@H](C(C)(C)C)[C@@H](C(=O)O)N(C(=O)[C@@H]2CCCCO2)[C@H]1c1ccccc1-c1ccncc1 [Example 196, (2S,3R,4S,5S)-3-tert-butyl-4-{[2-methoxy-5-(trifluoromethyl)pyridin-3-yl]methoxy}-1-[(2S)-oxane-2-carbonyl]-5-[2-(pyridin-4-yl)phenyl]pyrrolidine-2-carboxylic acid] |
| 1 to 10 | 1 to 10 | ++ (≥150 and <350) | + (<100) | COc1ncc(N2CC(F)(F)C2)cc1CO[C@H]1[C@H](C(C)(C)C)[C@@H](C(=O)O)N(C(=O)OC(C)C)[C@H]1c1ccccc1 [Example 84, (2S,3R,4S,5S)-3-tert-butyl-4-{[5-(3,3-difluoroazetidin-1-yl)-2-methoxypyridin-3-yl]methoxy}-5-phenyl-1-{[(propan-2-yl)oxy]carbonyl}pyrrolidine-2-carboxylic acid] |
| 1 to 10 | < 1 | +++ (≥350) | +++ (≥200) | COc1ncc(C(F)(F)F)cc1CO[C@H]1[C@H](C(C)(C)C)[C@@H](C(=O)O)N(C(=O)[C@@H]2CCCCO2)[C@H]1c1ccccc1CC(C)C [Example 213, (2S,3R,4S,5S)-3-tert-butyl-4-{[2-methoxy-5-(trifluoromethyl)pyridin-3-yl]methoxy}-5-[2-(2-methylpropyl)phenyl]-1-[(2S)-oxane-2-carbonyl]pyrrolidine-2-carboxylic acid] |
| 1 to 10 | < 1 | +++ (≥350) | +++ (≥200) | COc1ccc(C(C)(C)C)cc1CO[C@H]1[C@H](C(C)(C)C)[C@@H](C(=O)O)N(C(=O)[C@@H]2CCCO2)[C@H]1c1ccccc1Br [Example 162, (2S,3R,4S,5S)-5-(2-bromophenyl)-3-tert-butyl-4-[(5-tert-butyl-2-methoxyphenyl)methoxy]-1-[(2S)-oxolane-2-carbonyl]pyrrolidine-2-carboxylic acid] |
| 1 to 10 | < 1 | +++ (≥350) | ++ (≥100 and <200) | COc1ncc(C(F)(F)F)cc1CO[C@H]1[C@H](C(C)(C)C)[C@@H](C(=O)O)N(C(=O)[C@@H]2CCCCO2)[C@H]1c1cc(Cl)ccc1C [Example 230, (2S,3R,4S,5S)-3-tert-butyl-5-(5-chloro-2-methylphenyl)-4-{[2-methoxy-5-(trifluoromethyl)pyridin-3-yl]methoxy}-1-[(2S)-oxane-2-carbonyl]pyrrolidine-2-carboxylic acid] |

— patent publication US10399940B2, “Substituted pyrrolidines and methods of use” (AbbVie S.à.r.l., priority 2016, dated 2019)
